Measurements published in ChEMBL document CHEMBL5614450, “SAR Study of 4,8-Disubstituted Pyrimido[5,4-d]pyrimidines Exhibiting Antitrypanosomal and Antileishmanial Activity” (ACS Med Chem Lett, 2024).

Assays:
Trypanosoma brucei = test: Anti-trypanosomal activity against trypomastigote blood stage of Trypanosoma brucei Lister 427 assessed as inhibition of parasite growth incubated for 72 hrs by resazurin-dye based assay; assay type: functional, organism-based; details: Lister 427, 72 h
[1] = Cytotoxicity against human THP-1 cells assessed as reduction in cell viability incubated for 72 hrs by MTT assay; assay type: toxicity, cell-based
[2] = Selectivity index, ratio of CC50 for cytotoxicity against human THP-1 cells to IC50 for anti-trypanosomal activity against trypomastigote blood stage of Trypanosoma brucei Lister 427; assay type: toxicity, cell-based; details: read-out: Ratio CC50/IC50
Leishmania infantum [3] = test: Anti-leishmanial activity against promastigote stage of Leishmania infantum MHOM/MA/67/ITMAP-263 assessed as inhibition of parasite growth at 10 uM incubated for 72 hrs by resazurin-dye based assay; assay type: functional
[4] = Cytotoxicity against human A549 cells assessed as reduction in cell viability at 10 uM incubated for 24 hrs by Cell-Titer Glo luminescence assay; assay type: toxicity, cell-based; details: read-out: INH
[5] = Cytotoxicity against human HEK293 cells assessed as reduction in cell viability at 10 uM incubated for 24 hrs by Cell-Titer Glo luminescence assay; assay type: toxicity, cell-based; details: read-out: INH
CYP3A4 = CYP3A4 (Homo sapiens, UniProt P08684); test: Inhibition of human CYP3A4 expressed in insect cell microsomes at 10 uM preincubated for 20 mins followed by NADP+ and substrate addition and measured after 10 mins by fluorescence based analysis; assay type: ADME, Microsome; details: recombinant human CYP3A4 expressed in insect cell microsomes, time 30 min
hERG (KCNH2) = hERG (KCNH2) (Homo sapiens, UniProt Q12809); test: Displacement of tracer from hERG extracted from membrane at 10 uM incubated for 2 hrs by fluorescence polarization assay; assay type: toxicity, cell membranes; details: hERG membrane preparation, probe tracer (not named)
Leishmania infantum [6] = test: Anti-leishmanial activity against promastigote stage of Leishmania infantum MHOM/MA/67/ITMAP-263 assessed as inhibition of parasite growth incubated for 72 hrs by resazurin-dye based assay; assay type: functional, organism-based; details: MHOM/MA/67/ITMAP-263, 72 h
Leishmania infantum [7] = test: Anti-leishmanial activity against luciferase expressing intracellular amastigote stage of Leishmania infantum MHOM/MA/67/ITMAP-263 infected in human THP-1 cells assessed as inhibition of parasite growth at 10 uM incubated for 72 hrs by Steady-Glo luciferase assay; assay type: functional; details: MHOM/MA/67/ITMAP-263, THP-1
[8] = Selectivity index, ratio of CC50 for cytotoxicity against human THP-1 cells to IC50 for anti-leishmanial activity against promastigote stage of Leishmania infantum MHOM/MA/67/ITMAP-263; assay type: toxicity, cell-based; details: read-out: Ratio CC50/IC50
Leishmania infantum [9] = test: Anti-leishmanial activity against luciferase expressing intracellular amastigote stage of Leishmania infantum MHOM/MA/67/ITMAP-263 infected in human THP-1 cells assessed as inhibition of parasite growth incubated for 72 hrs by Steady-Glo luciferase assay; assay type: functional, organism-based; details: MHOM/MA/67/ITMAP-263, THP-1, 72 h

Chain of hERG (KCNH2) (Q12809 whole entry): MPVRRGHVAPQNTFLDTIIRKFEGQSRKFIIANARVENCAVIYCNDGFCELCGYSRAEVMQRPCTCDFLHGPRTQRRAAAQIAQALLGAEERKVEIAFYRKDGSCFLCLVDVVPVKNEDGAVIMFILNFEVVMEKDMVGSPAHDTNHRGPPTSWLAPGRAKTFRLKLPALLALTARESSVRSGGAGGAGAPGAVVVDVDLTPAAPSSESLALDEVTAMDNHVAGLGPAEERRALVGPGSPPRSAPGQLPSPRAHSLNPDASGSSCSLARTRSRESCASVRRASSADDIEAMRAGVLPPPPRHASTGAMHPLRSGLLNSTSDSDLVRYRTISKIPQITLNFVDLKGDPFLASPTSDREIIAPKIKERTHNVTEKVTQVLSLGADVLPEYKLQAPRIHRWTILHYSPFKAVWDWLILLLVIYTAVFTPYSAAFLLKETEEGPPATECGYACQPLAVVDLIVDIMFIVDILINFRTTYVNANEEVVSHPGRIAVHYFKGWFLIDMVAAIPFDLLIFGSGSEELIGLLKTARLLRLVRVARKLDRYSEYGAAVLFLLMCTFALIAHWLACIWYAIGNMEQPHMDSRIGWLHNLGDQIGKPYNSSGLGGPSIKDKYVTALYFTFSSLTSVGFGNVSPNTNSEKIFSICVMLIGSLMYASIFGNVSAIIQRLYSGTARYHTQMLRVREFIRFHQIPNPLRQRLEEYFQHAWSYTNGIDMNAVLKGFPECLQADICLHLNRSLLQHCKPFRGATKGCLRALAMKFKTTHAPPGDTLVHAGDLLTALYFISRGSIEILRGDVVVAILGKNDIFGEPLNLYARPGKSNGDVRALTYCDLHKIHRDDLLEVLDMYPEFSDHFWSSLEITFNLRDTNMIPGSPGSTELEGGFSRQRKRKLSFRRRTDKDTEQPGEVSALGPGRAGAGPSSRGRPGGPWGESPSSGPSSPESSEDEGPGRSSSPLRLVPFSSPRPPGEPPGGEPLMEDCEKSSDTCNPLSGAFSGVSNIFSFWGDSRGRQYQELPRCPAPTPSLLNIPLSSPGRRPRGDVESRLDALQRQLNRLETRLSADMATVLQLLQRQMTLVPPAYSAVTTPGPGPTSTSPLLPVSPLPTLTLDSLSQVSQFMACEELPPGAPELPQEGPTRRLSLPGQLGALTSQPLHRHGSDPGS
Chain of CYP3A4 (P08684 whole entry): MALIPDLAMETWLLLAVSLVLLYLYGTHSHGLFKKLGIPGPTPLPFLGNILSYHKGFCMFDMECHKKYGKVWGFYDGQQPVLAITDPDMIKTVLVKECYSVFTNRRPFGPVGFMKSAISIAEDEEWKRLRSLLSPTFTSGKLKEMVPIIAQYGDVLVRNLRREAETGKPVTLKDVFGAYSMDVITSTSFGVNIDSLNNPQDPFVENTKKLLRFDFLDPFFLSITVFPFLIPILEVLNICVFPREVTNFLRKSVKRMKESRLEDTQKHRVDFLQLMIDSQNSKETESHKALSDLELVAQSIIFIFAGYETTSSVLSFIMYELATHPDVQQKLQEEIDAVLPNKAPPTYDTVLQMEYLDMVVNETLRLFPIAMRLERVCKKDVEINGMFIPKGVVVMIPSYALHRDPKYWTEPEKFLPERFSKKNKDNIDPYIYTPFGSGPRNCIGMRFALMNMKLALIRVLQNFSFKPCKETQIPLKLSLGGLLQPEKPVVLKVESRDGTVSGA

| SMILES | IC50 (Trypanosoma brucei) [nM] | inhibition at 10 min, 10 µM (CYP3A4) [%] | CC50 at 72 h [1] [nM] | selectivity ratio [2] | inhibition at 10 µM (Leishmania infantum [3]) [%] | cytotoxicity at 24 h, 10 µM [4] [%] | cytotoxicity at 24 h, 10 µM [5] [%] | inhibition at 2 h, 10 µM (hERG (KCNH2)) [%] | IC50 (Leishmania infantum [6]) [nM] | inhibition at 10 µM (Leishmania infantum [7]) [%] | selectivity ratio [8] | IC50 (Leishmania infantum [9]) [nM] |
| --- | --- | --- | --- | --- | --- | --- | --- | --- | --- | --- | --- | --- |
| Oc1ccc(/C=N/Nc2ncnc3c(Nc4ccc(F)c(Cl)c4)ncnc23)cc1O | 590 | 25 | > 50000 | > 85 | 13 | -6 | -6 | 7 | – | – | – | – |
| N=C(N)c1ccc(OCCCCCOc2ccc(C(=N)N)cc2)cc1 [PENTAMIDINE] | 3 | – | < 10000 | – | – | – | – | – | – | – | – | – |
| COc1cc(/C=N/Nc2ncnc3c(Nc4ccc(F)c(Cl)c4)ncnc23)ccc1O | 260 | 24 | > 50000 | > 196 | 19 | 2 | 13 | 7 | – | – | – | – |
| COc1ccc(Nc2ncnc3c(N/N=C/c4cc(O)c(O)c(O)c4)ncnc23)cc1 | 540 | 0 | > 100000 | > 185 | 94 | 12 | 3 | 48 | 200 | 41 | > 502 | > 20000 |
| Oc1cc(/C=N/Nc2ncnc3c(Nc4ccc(F)c(Cl)c4)ncnc23)cc(O)c1O | 380 | 0 | > 10000 | > 26 | 0 | 27 | 24 | 62 | – | – | – | – |
| COc1cccc(Nc2ncnc3c(N/N=C/c4cc(O)c(O)c(O)c4)ncnc23)c1 | 2710 | 0 | > 100000 | > 37 | 95 | -6 | 8 | 34 | 450 | 4 | > 221 | – |
| COc1cc(/C=N/Nc2ncnc3c(Nc4ccc(Cl)c(C(F)(F)F)c4)ncnc23)cc(OC)c1OC | 1760 | 20 | > 10000 | > 6 | 22 | -7 | -2 | 24 | – | – | – | – |

The remaining molecules from weak to strong by IC50 (Trypanosoma brucei), led by results:

| IC50 (Trypanosoma brucei) [nM] | inhibition at 10 min, 10 µM (CYP3A4) [%] | SMILES | CC50 at 72 h [1] [nM] | selectivity ratio [2] | inhibition at 10 µM (Leishmania infantum [3]) [%] | cytotoxicity at 24 h, 10 µM [4] [%] | cytotoxicity at 24 h, 10 µM [5] [%] | inhibition at 2 h, 10 µM (hERG (KCNH2)) [%] | IC50 (Leishmania infantum [6]) [nM] | inhibition at 10 µM (Leishmania infantum [7]) [%] | selectivity ratio [8] | IC50 (Leishmania infantum [9]) [nM] |
| --- | --- | --- | --- | --- | --- | --- | --- | --- | --- | --- | --- | --- |
| 8720 | 30 | COc1cc(/C=N/Nc2ncnc3c(Nc4ccc(F)c(Cl)c4)ncnc23)cc(OC)c1OC | > 10000 | > 1 | 20 | 14 | 14 | 5 | – | – | – | – |
| 1440 | 27 | COc1ccc(/C=N/Nc2ncnc3c(Nc4ccc(Cl)c(C(F)(F)F)c4)ncnc23)cc1O | > 10000 | > 7 | 12 | 3 | -3 | 7 | – | – | – | – |
| 710 | 12 | COc1ccc(Nc2ncnc3c(NN)ncnc23)cc1 | > 50000 | > 71 | 99 | -14 | -7 | 7 | 720 | < 0 | 69 | – |
| 180 | 20 | NNc1ncnc2c(Nc3ccc(OC(F)(F)F)cc3)ncnc12 | > 10000 | > 55 | 18 | 17 | 17 | 30 | – | – | – | – |
| 110 | 65 | COc1cccc(Nc2ncnc3c(NN)ncnc23)c1 | > 50000 | > 438 | 99 | 16 | 12 | 14 | 280 | < 0 | 178 | – |
